Experimental findings from patent US9856216B2, “Compounds as TNIK, IKKε and TBK1 inhibitors and pharmaceutical composition comprising same” (GREEN CROSS CORPORATION, priority 2015, dated 2018) are described below.

SMILES strings stand for the structures.

For one experiment, the target named is T1, TNIK (Homo sapiens, UniProt Q9UKE5).
T1 construct: purchased Promega V4158
T1 sequence (Q9UKE5 1-367 limits assumed): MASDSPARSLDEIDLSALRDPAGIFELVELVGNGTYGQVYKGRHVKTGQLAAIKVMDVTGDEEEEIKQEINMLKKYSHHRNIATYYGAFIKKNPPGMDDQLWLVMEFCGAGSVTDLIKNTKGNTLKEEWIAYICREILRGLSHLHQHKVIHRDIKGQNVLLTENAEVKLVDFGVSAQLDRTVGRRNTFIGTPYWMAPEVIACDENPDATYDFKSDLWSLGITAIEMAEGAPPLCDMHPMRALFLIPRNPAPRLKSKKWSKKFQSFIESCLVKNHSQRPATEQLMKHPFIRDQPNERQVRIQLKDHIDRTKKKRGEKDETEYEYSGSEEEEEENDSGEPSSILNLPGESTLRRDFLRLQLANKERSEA
The experiment in a line: ADP-Glo Kinase Assay, inhibition activity on TNIK. It counts as biochemical.
Conditions: not given
As for the experimental part: The inhibition activities on TNIK, IKKε and TBK1 were measured by a luminometer, TNIK/IKKε/TBK1 Kinase Enzyme System (Promega, Ca# V4158; Invitrogen, PR8031B, Promega, Ca# V3991) and ADP-Glo Kinase Assay using ADP-Glo™ Kinase Analysis Kit (Promega, Ca# V9101) and a kinase reaction buffer [40 mM Tris(pH 7.5), 20 mM MgCl2, 0.1 mg/mL BSA] in accordance with the manufacturer's protocol.
(In ADP-Glo the light output rises with the ADP produced.)
In the case of `O=C(Nc1ccc(-c2ccncc2)c2c1C(=O)NC2)c1ccccc1` [Example 127, N-(3-oxo-7-(pyridin-4-yl)isoindolin-4-yl)benzamide], the “TNIK (μM)” value was “Insoluble”.

Staying with this experiment, now noted: read-out: TNIK.
As to `O=C(Nc1ccc(-c2ccccc2)c2c1C(=O)NC2)c1ccc(NCCCN2CCCC2)cc1` [Example 363, N-(3-oxo-7-phenylisoindolin-4-yl)-4-((3-(pyrrolidin-1-yl)propyl)amino)benzamide], the IC50 came out at 330 nM.

`O=C(Nc1ccc(-c2cccnc2)c2c1C(=O)NC2)c1ccccc1` [Example 152, N-(3-oxo-7-(pyridin-3-yl)isoindolin-4-yl)benzamide]: the IC50 was > 20000 nM.

`O=C(Nc1ccc(Nc2ccccc2)c2c1C(=O)NC2)c1ccccc1F` [Example 420, 2-Fluoro-N-(3-oxo-7-(phenylamino)isoindolin-4-yl)benzamide]: the IC50 worked out at 790 nM.

`O=C(Nc1ccc(-c2ncn[nH]2)c2c1C(=O)NC2)c1ccccc1` [Example 58, N-(3-oxo-7-(1H-1,2,4-triazol-5-yl)isoindolin-4-yl)benzamide]: the IC50 amounted to 2670 nM.

Regarding `CN(C)c1ccccc1C(=O)Nc1ccc(-c2ccccc2)c2c1C(=O)NC2` [Example 94, 2-(Dimethylamino)-N-(3-oxo-7-phenylisoindolin-4-yl) benzamide], the IC50 is > 20000 nM.

Turning to `O=C(Nc1ccc(-c2ccccc2)c2c1C(=O)NCC2)c1ccco1` [Example 399, N-(1-oxo-5-phenyl-1,2,3,4-tetrahydroisoquinolin-8-yl)furan-2-carboxamide], the IC50 was 1800 nM.

For the compound `O=C(Nc1ccc(-c2cccc(Cl)c2)c2c1C(=O)NC2)c1ccccc1` [Example 180, N-(7-(3-chlorophenyl)-3-oxoisoindolin-4-yl)benzamide], the IC50 amounted to 13700 nM.

In the case of `O=C(Nc1ccc(-c2cccc(F)c2F)c2c1C(=O)NC2)c1ccccc1` [Example 34, N-(7-(2,3-difluorophenyl)-3-oxoisoindolin-4-yl)benzamide], the IC50 was determined as 540 nM.

In the case of `COc1ccc(-c2ccc(N)c3c2CNC3=O)cc1` [Example 60, 7-Amino-4-(4-methoxyphenyl)isoindolin-1-one], the IC50 is > 20000 nM.

For the compound `O=C1NCc2c(-c3ccccc3)ccc(NS(=O)(=O)c3ccc(F)cc3)c21` [Example 251, 4-Fluoro-N-(3-oxo-7-phenylisoindolin-4-yl)benzene sulfonamide], the IC50 is > 20000 nM.

As for `Cn1cc(Nc2ccc(NC(=O)c3ccc(F)cc3)c3c2CNC3=O)cn1` [Example 430], the IC50 is 6470 nM.

In the case of `O=C(Nc1ccc(-c2ccco2)c2c1C(=O)NC2)c1ccccc1` [Example 126, N-(7-(furan-2-yl)-3-oxoisoindolin-4-yl)benzamide], the IC50 stood at 600 nM.

Regarding `COc1ccccc1Nc1ccc(NC(=O)c2ccc(NCCN3CCCC3)cc2)c2c1CNC2=O` [Example 474, N-(7-((2-methoxyphenyl)amino)-3-oxoisoindolin-4-yl)-4-((2-(pyrrolidin-1-yl)ethyl)amino)benzamide], the IC50 came to 440 nM.

Turning to `O=C(Nc1ccc(-c2ccco2)c2c1C(=O)NC2)c1ccc(NCCCN2CCCCC2)cc1` [Example 338, N-(7-(furan-2-yl)-3-oxoisoindolin-4-yl)-4-((3-(piperidin-1-yl)propyl)amino)benzamide], the IC50 worked out at 370 nM.

As to `COc1cccc(Nc2ccc(NC(=O)c3ccc(NCCN4CCCC4)cc3)c3c2CNC3=O)c1` [Example 445, N-(7-((3-methoxyphenyl)amino)-3-oxoisoindolin-4-yl)-4-((2-(pyrrolidin-1-yl)ethyl)amino)benzamide], the IC50 is 550 nM.

Turning to `O=C(Nc1ccc(-c2cccc(F)c2F)c2c1C(=O)NC2)c1ccc(NCCN2CCCC2)cc1` [Example 364, N-(7-(2,3-difluorophenyl)-3-oxoisoindolin-4-yl)-4-((2-(pyrrolidin-1-yl)ethyl)amino)benzamide], the IC50 turned out to be 180 nM.

Turning to `O=C(Nc1ccc(-c2ccccc2)c2c1C(=O)NC2)c1ccc(NCCCN2CCCCC2)cc1` [Example 370, N-(3-oxo-7-phenylisoindolin-4-yl)-4-((3-(piperidin-1-yl)propyl)amino)benzamide], the IC50 stood at 510 nM.
